Series [1] can be described thus: Stability of the radiopeptide formulated in saline (HPLC). The note with it: for Intact radiopeptide: 0.9% NaCl, room temperature, 20 MBq/nmol, 10 MBq/100 µL. It is filed as physicochemical. How it is done:
The purified [^67Ga]GaCl3 in HCl (~ 0.1 M) was added to a sodium acetate solution (0.5 M, pH 8) to obtain a buffered system of pH ~ 4. After adding the respective peptide (DOTA-DX600, NODAGA-DX600, HBED-CC-DX600 or DOTA-BPP9a) in a quantity to obtain the desired molar activity (5–20 MBq/nmol), the reaction mixture was incubated at 95 °C for 15 min. Quality control was performed using a Merck Hitachi LaChrom HPLC system (Additional file 1). The radiopeptides were used directly for in vitro and in vivo studies without further purification steps. The stability of the radiopeptides (20 MBq/nmol) formulated in 0.9% NaCl (10 MBq/100 µL) was assessed at room temperature (Additional file 1). The highest molar activity used in these studies was 20 MBq/nmol which means that one of 73–74 molecules was labeled with gallium-67. Nevertheless, the labeling efficiency of the DX600-based peptides was assessed using the highest possible molar activity that would still allow for the preparation of the DX600-based radiopeptide at a radiochemical purity of > 95% (Additional file 1).
Methods: The integrity of the radiopeptides (20 MBq/nmol), formulated in 0.9% NaCl (10 MBq/100 µL) and incubated at room temperature, was determined by HPLC using the system described above. The HPLC chromatograms were analyzed by determination of the peak area of the radiolabeled peptide, the released gallium-67, as well as degradation products of unknown structure. The quantity of the intact product was expressed as percentage of the sum of integrated peak areas of the entire chromatogram and set in relation to the original value determined at t = 0, which was set as 100%.

The target in another series is T1, ACE2 (Homo sapiens, UniProt Q9BYF1).
T1 construct: host or cells: HEK-293
The series can be described thus: ACE2-binding affinity (saturation binding on HEK-ACE2 cells). The note with it: on ice, 1 h. How it is done: In order to determine the KD values of the DX600-based radiopeptides and [^67Ga]Ga-DOTA-BPP9a, HEK-ACE2 and HEK-ACE cells were seeded in 48-well-plates allowing adhesion and growth overnight. The cell samples were incubated with increasing concentrations (1‒2000 nM) of the radiopeptides (5 MBq/nmol) on ice. Some of the cell samples were co-incubated with an excess of cyclo-DX600 or lisinopril (20 µM, 10 nmol) to block ACE2 or ACE, respectively, enabling the determination of non-specific binding (Additional file 1). After 1 h incubation, the cells were rinsed with PBS and lysed with NaOH (1 M, 600 µL) to count the activity in a γ-counter. The KD values were determined by plotting specific binding (total binding minus unspecific binding) against the molar concentration of the added radiopeptide. A nonlinear regression analysis was performed using GraphPad Prism software (version 8.3.1).

Series [2] in a line: In vitro stability in mouse blood plasma (TLC). The class given is in vitro ADME. The note with it: 37 °C. As for the experimental part: (§1) The ^67Ga-labeled DX600-radiopeptides (20 MBq/nmol) were incubated in human and mouse plasma (10 MBq/200 µL), respectively, at 37 °C. Aliquots were taken at variable time points up to 24 h for analysis using reversed phase thin layer chromatography (TLC) with citrate buffer (0.1 M, pH 5.5) as a mobile phase. Images of the TLC plates were obtained using a storage phosphor system (Cyclone Plus, PerkinElmer) and quantified using the OptiQuant software (version 5.0, Bright Instrument Co Ltd., PerkinElmer™) (Supplementary Information).
(§2) The radiopeptides were prepared and TLC experiments were performed immediately after radiolabeling by applying the diluted radiopeptides in saline (1 µL; ~0.05 MBq) and [^67Ga]GaCl3 solution (1 µL; ~0.05 MBq) on the TLC plates. The radiopeptides were incubated in mouse or human plasma (10 MBq/200 µL) at 37° C. TLC was performed with an aliquot of the plasma samples at the given timepoints (30 min, 1 h, 3 h and 24 h). The TLC plates were exposed to a phosphor screen followed by development using a storage phosphor system (Cyclone Plus, PerkinElmer). The quantification of the signals was carried out using the OptiQuant software (version 5.0, Bright Instrument Co Ltd., PerkinElmer^TM). The obtained chromatograms were analyzed by determination of the peak area of the radiolabeled peptide, the released gallium-67 as well as degradation products of unknown structure. The quantity of the intact product was expressed as percentage of the sum of integrated peak areas of the entire chromatogram.

Series [3] can be described thus: In vitro stability in human blood plasma (TLC). It is filed as in vitro ADME. The settings on record: 37 °C. How it is done:
as §1, §2

Another series has as its system HEK-ACE2 cells. The series can be described thus: Cell uptake and internalization in HEK-ACE2 cells. The class given is cell-based, human. As for the experimental part:
HEK-293 cells transfected with ACE2 or ACE, referred to as HEK-ACE2 and HEK-ACE, respectively, were obtained from Innoprot (Innovative Technologies in Biological Systems S.L. Bizkaia, Spain). The cells were cultured in Dulbecco’s Modified Eagle Medium (DMEM) supplemented with nonessential amino acids, fetal calf serum and antibiotics. Hygromycin B was used to maintain the expression of ACE2 and ACE, respectively. The HEK cells were cultured under standard conditions at 37 °C and 5% CO2 and subcultured using PBS/EDTA and trypsin.
The uptake and internalization of [^67Ga]Ga-DOTA-DX600, [^67Ga]Ga-NODAGA-DX600, [^67Ga]Ga-HBED-CC-DX600 and [^67Ga]Ga-DOTA-BPP9a were determined using HEK-ACE2 and HEK-ACE cells. The cells were seeded in poly-D-lysine-coated 12-well plates allowing cell adhesion and growth overnight. After rinsing the cells with PBS, they were incubated with the respective radiopeptide (25 µL, 1.9 pmol, 38 kBq). In some cell samples, the radiopeptides were co-incubated with excess of cyclo-DX600 (2 µM) or lisinopril (4 µM) to block ACE2 or ACE, respectively. After incubation of the cells for 1 h or 3 h, they were rinsed with PBS or acidic stripping buffer (glycine buffer with NaCl 0.9%, pH 2.8) to determine the total uptake and internalization of the radiopeptides, respectively. Cell samples were lysed using NaOH (1 M, 1 mL) before counting the activity in a γ-counter. The results were expressed as a percentage of total added activity and normalized to an average content of ~ 0.3 mg protein per well.
Methods: The methods for cell uptake studies are reported in the main article. The cyclo-DX600 (ACE2 inhibitor) and lisinopril (ACE inhibitor) were applied at a final concentration of 2 µM and 4 µM, respectively.

Positions of bridges follow the written chain, without caps; N, C: chain ends. Residues, ends and D or L forms follow the SMILES beside them. *: point of attachment. DOTA = O=C(O)CN1CCN(CC(=O)O)CCN(CC(=O)*)CCN(CC(=O)O)CC1; NODAGA = O=C(O)CN1CCN(CC(=O)O)CCN(C(CCC(=O)*)C(=O)O)CC1; Ahx = NCCCCCC(=O)O Bounds are passed on as bounds.

T1 sequence (Q9BYF1 18-805): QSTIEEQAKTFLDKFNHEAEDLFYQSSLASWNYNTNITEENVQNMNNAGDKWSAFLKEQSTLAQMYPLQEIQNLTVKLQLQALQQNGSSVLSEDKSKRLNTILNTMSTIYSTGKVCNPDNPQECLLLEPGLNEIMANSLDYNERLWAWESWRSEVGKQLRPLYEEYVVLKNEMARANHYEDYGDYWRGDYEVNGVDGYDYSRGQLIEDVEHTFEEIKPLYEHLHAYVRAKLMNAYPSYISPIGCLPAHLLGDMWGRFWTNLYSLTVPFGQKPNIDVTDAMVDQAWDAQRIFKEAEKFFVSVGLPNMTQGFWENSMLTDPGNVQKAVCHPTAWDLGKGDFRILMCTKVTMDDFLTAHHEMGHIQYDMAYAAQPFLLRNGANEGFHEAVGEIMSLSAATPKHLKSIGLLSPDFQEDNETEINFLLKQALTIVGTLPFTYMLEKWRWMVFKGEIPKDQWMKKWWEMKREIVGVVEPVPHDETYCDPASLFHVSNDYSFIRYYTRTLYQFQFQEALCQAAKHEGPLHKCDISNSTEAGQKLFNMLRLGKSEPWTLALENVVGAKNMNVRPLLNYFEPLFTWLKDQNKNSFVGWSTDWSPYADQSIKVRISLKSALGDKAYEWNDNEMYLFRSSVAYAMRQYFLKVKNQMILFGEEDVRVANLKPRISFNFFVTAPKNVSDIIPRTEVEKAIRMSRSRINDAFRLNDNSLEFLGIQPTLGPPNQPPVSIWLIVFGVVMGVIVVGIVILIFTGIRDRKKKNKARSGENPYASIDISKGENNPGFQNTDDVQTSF

As for `CC[C@H](C)[C@H](NC(=O)[C@H](CCC(N)=O)NC(=O)[C@@H]1CCCN1C(=O)[C@H](CCCNC(=N)N)NC(=O)[C@@H]1CCCN1C(=O)[C@H](Cc1c[nH]c2ccccc12)NC(=O)[C@H](CCC(=O)O)NC(=O)CCCCCNC(=O)CCCCCNC(=O)CN1CCN(CC(=O)O)CCN(CC(=O)O)CCN(CC(=O)O)CC1)C(=O)N1CCC[C@H]1C(=O)N1CCC[C@H]1C(=O)O` [[^67Ga]Ga-DOTA-BPP9a, metal not drawn] ({DOTA-Ahx-Ahx}-EWPRPQIPP-OH), the “Degradation products (partial radiolysis)” value in series [1] (saline, 24 h incubation) was ~ 11%.
Broadly, the Kd is the constant that tells how readily two partners part at equilibrium. Regarding `CC(=O)N[C@@H](CCCCNC(=O)CN1CCN(CC(=O)O)CCN(CC(=O)O)CCN(CC(=O)O)CC1)C(=O)NCC(=O)N[C@@H](CC(=O)O)C(=O)N[C@@H](Cc1ccc(O)cc1)C(=O)N[C@@H](CO)C(=O)N[C@@H](Cc1c[nH]cn1)C(=O)N[C@H]1CSSC[C@@H](C(=O)N[C@H](C(=O)N[C@@H](Cc2ccc(O)cc2)C(=O)N2CCC[C@H]2C(=O)N[C@@H](CC(=O)O)C(=O)N2CCC[C@H]2C(=O)N[C@@H](CCC(=O)O)C(=O)NCC(=O)NCC(=O)NCC(N)=O)[C@@H](C)O)NC(=O)[C@H](CCCCN)NC(=O)[C@H](Cc2c[nH]c3ccccc23)NC(=O)[C@H](Cc2c[nH]c3ccccc23)NC(=O)[C@@H]2CCCN2C(=O)[C@H](Cc2ccc(O)cc2)NC(=O)[C@H](Cc2ccc(O)cc2)NC(=O)[C@H](CCCNC(=N)N)NC(=O)[C@H](CC(C)C)NC(=O)[C@@H]2CCCN2C(=O)[C@H](CO)NC1=O` [[^67Ga]Ga-DOTA-DX600, metal not drawn] (Ac-K(DOTA)GDYSHCSPLRYYPWWKCTYPDPEGGG-NH2; disulfide 7-18), at ACE2, binding was put at a Kd of 98 ± 10 nM. For the same compound, the entries for the “Intact radiopeptide in mouse blood plasma” value in series [2] (3 h), in series [2] (24 h) and in series [2] (first hour) were 95 ± 3%, 20 ± 13% and “intact”, respectively. Besides, the “Release of gallium-67 in mouse blood plasma” value in series [2] (3 h) is ~ 4%; in series [2] (24 h), over 50%. Also, the “Released gallium-67 in human blood plasma” value in series [3] (24 h) is over 30%.
On to `CC(=O)N[C@@H](CCCCNC(=O)CCC(C(=O)O)N1CCN(CC(=O)O)CCN(CC(=O)O)CC1)C(=O)NCC(=O)N[C@@H](CC(=O)O)C(=O)N[C@@H](Cc1ccc(O)cc1)C(=O)N[C@@H](CO)C(=O)N[C@@H](Cc1c[nH]cn1)C(=O)N[C@H]1CSSC[C@@H](C(=O)N[C@H](C(=O)N[C@@H](Cc2ccc(O)cc2)C(=O)N2CCC[C@H]2C(=O)N[C@@H](CC(=O)O)C(=O)N2CCC[C@H]2C(=O)N[C@@H](CCC(=O)O)C(=O)NCC(=O)NCC(=O)NCC(N)=O)[C@@H](C)O)NC(=O)[C@H](CCCCN)NC(=O)[C@H](Cc2c[nH]c3ccccc23)NC(=O)[C@H](Cc2c[nH]c3ccccc23)NC(=O)[C@@H]2CCCN2C(=O)[C@H](Cc2ccc(O)cc2)NC(=O)[C@H](Cc2ccc(O)cc2)NC(=O)[C@H](CCCNC(=N)N)NC(=O)[C@H](CC(C)C)NC(=O)[C@@H]2CCCN2C(=O)[C@H](CO)NC1=O` (some centres unmarked) [[^67Ga]Ga-NODAGA-DX600, metal not drawn] (Ac-K(NODAGA)GDYSHCSPLRYYPWWKCTYPDPEGGG-NH2; disulfide 7-18), for which the Intact radiopeptide in series [1] (1 h), in series [1] (3 h) and in series [1] (24 h) was at least 99% throughout. In addition, the “Internalized fraction in HEK-ACE2 cells” value in the series on HEK-ACE2 cells (3 h incubation, acidic stripping buffer) is on record as 8.2 ± 0.3%. Further, the “Uptake in HEK-ACE2 cells” value in the series with HEK-ACE2 cells (3 h incubation, percentage of total added activity) was 40 ± 3%. In addition, the “Uptake in HEK-ACE2 cells in the presence of excess cyclo-DX600 (unspecifically bound)” value in the series on HEK-ACE2 cells (co-incubation with cyclo-DX600 2 µM) is given as 3.1 ± 1.1%. The entries for the “Intact radiopeptide in mouse blood plasma” value in series [2] (3 h) and in series [2] (24 h) were 97 ± 1% and 36 ± 7%, respectively. Besides, in series [3] (whole incubation period of 24 h), the “Intact radiopeptide in human blood plasma” value was over 99%.

The values are drawn from article PMC10113987, “A tool for nuclear imaging of the SARS-CoV-2 entry receptor: molecular model and preclinical development of ACE2-selective radiopeptides” (EJNMMI Research, 2023).
